Legend:
[1] = tested on: human hematopoietic stem cells (CD34-positive cells); assay: Confirmation test with human cells: 1-week culture of cord blood Lineage-negative CD34-positive cells, flow cytometry; format: cell-based; conditions: 180 cells before culture, no UM171
Text: Collection of Human Cord Blood-Derived Mononuclear Cells Human cord blood-derived mononuclear cells were subjected to removal of erythrocytes and concentration treatment by using EasySep RBC Depletion Reagent (manufactured by […] Technologies Inc.) to obtain a cell population including hematopoietic stem cells.
First, a CD34-positive cell fraction was partially purified from the thus-obtained cell population including hematopoietic stem cells by using an EASYSep Human Cord Blood CD34 Positive Selection Kit II (manufactured by […] Technologies Inc.). The concentrated CD34-positive cells in a cell population enriched with hematopoietic stem cells and progenitor cells were stained with antibodies for the following cell surface markers.
Staining with the antibodies was performed at 4° C., and the cells were incubated for 30 minutes. For staining with the CD34 antibody, the cells were incubated for 90 minutes. Dead cell staining was performed with SYTOX Blue Dead Cell Stain (manufactured by Life Technologies) in accordance with a method recommended by the manufacturer.
Flow cytometry analysis and cell classification (cell sorting) were performed with a FACS Aria III cell sorter (manufactured by BD Biosciences), wherein fractions being Lineage-negative and CD34-positive were regarded as hematopoietic stem cells, and analysis was performed with the software FlowJo (manufactured by Tree Star, Inc.).
The cells after classification were seeded in a 96-well plate. […]
Each of artemether and the compounds of Example 1-23, Example 1-16, and Example 1-7 was prepared with the cell culture medium at nine final concentrations (0.001 μM, 0.003 μM, 0.01 μM, 0.03 μM, 0.1 μM, 0.3 μM, 1 μM, 3 μM, 10 μM), and added to the above human cells seeded after classification to a final volume of 200 μL/well to act thereon. UM171 (35 nM) was added to some of them to examine the presence or absence of synergistic effect. Thereafter, the cells were cultured in a CO2 incubator under conditions of 37° C. and 5% CO2 for 1 week. Viable cell counts and CD34-positive cell counts were analyzed.
After culture, the cells were stained with the antibodies for the surface markers CD34, CD11b, CD14, CD19, CD20, CD235ab, CD3, CD4, CD56, and CD8a, and the visible cell count and the ratio and post-growth cell count of a CD34 fraction (CD34^+, Lin^−) were measured by using a FACS Aria III cell sorter, and analyzed by using FlowJo (BD Biosciences). The CD34 fraction is a fraction including hematopoietic stem cells and multipotent progenitor cells as main components.

[2] = tested on: human hematopoietic stem cells (CD34-positive cells); assay: Functional test with human cells: colony assay (CFU-GEMM) after culture; format: cell-based; conditions: 1 week culture then 2 weeks MethoCult H4435, no UM171
Procedure: Each of artemether and the compounds of Example 1-23, Example 1-16, and Example 1-7 was prepared with the cell culture medium at nine final concentrations (0.001 μM, 0.003 μM, 0.01 μM, 0.03 μM, 0.1 μM, 0.3 μM, 1 μM, 3 μM, 10 μM), and added to the above human cells seeded after classification to a final volume of 200 μL/well to act thereon. UM171 (35 nM) was added to some of them to examine the presence or absence of synergistic effect. Thereafter, the cells were cultured in a CO2 incubator under conditions of 37° C. and 5% CO2 for 1 week, collected, and then seeded in a 96-well plate to place one CD34-positive cell in each well by using a FACS Aria III cell sorter, and cultured with a MethoCult H4435 ([…] Technologies Inc.) for 2 weeks. After culture, each well was photographed with an optical microscope (manufactured by KEYENCE CORPORATION), and the colony count was determined by visual observation and the form of each colony was determined by visual observation. Colony Formation Unit-Granulocytes, Erythroids, Macrophages, Megakaryocytes (CFU-GEMM), which are derived from myeloid progenitor cells, the erythroid burst colony-forming cells Burst Forming Unit-Erythroids (BFU-E), the granulocyte/macrophage colony-forming cells Colony Formation Unit-Granulocytes, Macrophages (CFU-GM) were determined on the basis of the forms of colonies, and the numbers were counted.

Structure (SMILES) | CD34-positive cell count ([1]; compound 0.001 μM) | Viable cell count ([1]; compound 0.001 μM) | CD34-positive cell count ([1]; compound 0.003 μM) | Viable cell count ([1]; compound 0.003 μM) | CD34-positive cell count ([1]; compound 0.01 μM) | Viable cell count ([1]; compound 0.01 μM) | CD34-positive cell count ([1]; compound 0.03 μM) | Viable cell count ([1]; compound 0.03 μM) | CD34-positive cell count ([1]; compound 0.1 μM) | Viable cell count ([1]; compound 0.1 μM) | CD34-positive cell count ([1]; compound 0.3 μM) | Viable cell count ([1]; compound 0.3 μM) | CD34-positive cell count ([1]; compound 1 μM) | Viable cell count ([1]; compound 1 μM) | CD34-positive cell count ([1]; compound 3 μM) | Viable cell count ([1]; compound 3 μM) | CD34-positive cell count ([1]; compound 10 μM) | Viable cell count ([1]; compound 10 μM) | Colony count (colony) after culture (CFU-GEMM) ([2]; compound 0.001 μM) | Colony count (colony) after culture (CFU-GEMM) ([2]; compound 0.003 μM) | further results
C[C@H]1[C@H](c2ccco2)O[C@@H]2O[C@@]3(C)CC[C@H]4[C@H](C)CC[C@@H]1[C@@]24OO3 [Example 1-7, (3R,5aS,6R,8aS,9R,10R,12R,12aR)-10-(Furan-2-yl)-3,6,9-trimethyldecahydro-12H-3,12-epoxypyrano[4,3-j][1,2]benzodioxepine] | 175 cell | 1314 cell | 113 cell | 1013 cell | 150 cell | 1115 cell | 86 cell | 905 cell | 80 cell | 693 cell | 5 cell | 439 cell | 4 cell | 196 cell | 0 cell | 202 cell | 0 cell | 181 cell | 43.8 colony | 33.8 colony | Colony count (colony) after culture (CFU-GEMM) ([2]; compound 0.01 μM): 74.3 colony; Colony count (colony) after culture (CFU-GEMM) ([2]; compound 0.03 μM): 83.0 colony; Colony count (colony) after culture (CFU-GEMM) ([2]; compound 0.1 μM): 64.1 colony; Colony count (colony) after culture (CFU-GEMM) ([2]; compound 0.3 μM): 19.5 colony; Colony count (colony) after culture (CFU-GEMM) ([2]; compound 1 μM): 0.0 colony; Colony count (colony) after culture (CFU-GEMM) ([2]; compound 3 μM): 0.0 colony; Colony count (colony) after culture (CFU-GEMM) ([2]; compound 10 μM): 0.0 colony
COCCO[C@H]1O[C@@H]2O[C@@]3(C)CC[C@H]4[C@H](C)CC[C@@H]([C@H]1C)[C@@]24OO3 [Example 1-23, (3R,5aS,6R,8aS,9R,10S,12R,12aR)-10-(2-methoxyethoxy)-3,6,9-trimethyldecahydro-12H-3,12-epoxypyrano[4,3-j][1,2]benzodioxepine] | 156 cell | 1581 cell | 65 cell | 797 cell | 72 cell | 1152 cell | 63 cell | 901 cell | 28 cell | 537 cell | 19 cell | 462 cell | 16 cell | 480 cell | 15 cell | 269 cell | 0 cell | 333 cell | 171.3 colony | 39.9 colony | Colony count (colony) after culture (CFU-GEMM) ([2]; compound 0.01 μM): 76.8 colony; Colony count (colony) after culture (CFU-GEMM) ([2]; compound 0.03 μM): 22.5 colony; Colony count (colony) after culture (CFU-GEMM) ([2]; compound 0.1 μM): 13.4 colony; Colony count (colony) after culture (CFU-GEMM) ([2]; compound 0.3 μM): 3.9 colony; Colony count (colony) after culture (CFU-GEMM) ([2]; compound 1 μM): 12.0 colony; Colony count (colony) after culture (CFU-GEMM) ([2]; compound 3 μM): 4.5 colony; Colony count (colony) after culture (CFU-GEMM) ([2]; compound 10 μM): 0.0 colony
C[C@H]1[C@H](C(N)=O)O[C@@H]2O[C@@]3(C)CC[C@H]4[C@H](C)CC[C@@H]1[C@@]24OO3 [Example 1-16, (3R,5aS,6R,8aS,9R,10R,12R,12aR)-3,6,9-Trimethyldecahydro-12H-3,12-epoxypyrano[4,3-j][1,2]benzodioxepine-10-carboxamide] | 143 cell | 1306 cell | 173 cell | 1224 cell | 116 cell | 1301 cell | 130 cell | 590 cell | 92 cell | 811 cell | 32 cell | 549 cell | 13 cell | 368 cell | 13 cell | 300 cell | 3 cell | 264 cell | 130.6 colony | 112.2 colony | Colony count (colony) after culture (CFU-GEMM) ([2]; compound 0.01 μM): 65.1 colony; Colony count (colony) after culture (CFU-GEMM) ([2]; compound 0.03 μM): 68.8 colony; Colony count (colony) after culture (CFU-GEMM) ([2]; compound 0.1 μM): 40.6 colony; Colony count (colony) after culture (CFU-GEMM) ([2]; compound 0.3 μM): 22.9 colony; Colony count (colony) after culture (CFU-GEMM) ([2]; compound 1 μM): 15.7 colony; Colony count (colony) after culture (CFU-GEMM) ([2]; compound 3 μM): 10.0 colony; Colony count (colony) after culture (CFU-GEMM) ([2]; compound 10 μM): 8.8 colony

From patent publication US20230094952A1, “Method for Culturing Hematopoietic Stem Cells” (Sumitomo Pharma Co., Ltd., priority 2019, published 2023)
